{
  "source": "patent US8497261B2",
  "about": "“3-aminocaprolactam compounds for treating inflammatory disorders” (Cambridge Enterprise Limited, priority 2004, dated 2013)",
  "key": {"Stability in human serum": {"assay": "Stability in human serum", "assay_type": "in vitro ADME", "settings": "37° C.", "source_text": "As an approach to identifying such stable anlogs, various derivatives of (S)-3-(undec-10-enoyl)-aminoglutarimide have been tested for their stability in serum."}, "[1]": {"test_system": "chemokine-induced migration", "assay": "Chemokine-induced migration in vitro (prior compounds)", "assay_type": "cell-based", "settings": "compared with (S)-3-(undec-10-enoyl)-aminoglutarimide"}, "[2]": {"settings": "cited from earlier work"}},
  "data": [
    {"compound": "C=CCCCCCCCCC(=O)[C@@H]1CCCNC1=O", "note": "[(S)-3-(undec-10-enoyl)-tetrahydropyridin-2-one]", "values": [
      {"measurement": "time completely stable in human serum", "setting": "Stability in human serum", "value": "at least 7 days"},
      {"measurement": "potency compared with the parental molecule", "setting": "[1]", "value": "considerably reduced potency"}
    ]},
    {"compound": "CCCCC[C@H]1CC[C@H](C(=O)N[C@H]2CCCNC(=O)C2)CC1", "note": "[Example 4, (S)-3-(trans-4′-pentylcyclohexane-1-carbonyl)amino-caprolactam]", "values": [
      {"measurement": "melting point", "value": "182 to 184", "unit": "°C"}
    ]},
    {"compound": "c(DCys-DG1n-DIle-DTrp-DLys-DG1n-DLys-DPro-DAsp-DLeu-DCys)-NH2 [NR583.14.3]", "values": [
      {"measurement": "half-life period of clearance from blood plasma", "setting": "[2]; after intravenous injection", "value": "less than 30 minutes"},
      {"measurement": "oral bioavailability", "setting": "[2]; in vivo, po", "value": "not orally bioavailable"}
    ]}
  ]
}
